In patent publication US20240398768A1, “METHODS OF TREATING SOLID TUMOR USING HETEROAROMATIC MACROCYCLIC ETHER COMPOUNDS” (Nuvalent, Inc., priority 2021, published 2024):
Marks after values point to notes of the source that are not given here.

Legend:
[1] = system: Ba/F3 CD74-ROS1 G2032R luciferase cells; assay: Intracranial Ba/F3 CD74-ROS1 G2032R luciferase model; format: in vivo, mice; conditions: 2 mg/kg, PO, BID
Description: Ba/F3 CD74-ROS1 G2032R cells were transduced with viral particles containing the firefly luciferase gene and a neomycin-resistance marker. Infected cells were selected on neomycin, and monoclonal cultures were established through limiting dilution. Successful transformants were confirmed by Sanger sequencing and bioluminescence.

[2] = target: T1, CYP1A2 (Homo sapiens, UniProt P05177); assay: CYP substrate assessment; format: in vitro ADME
T1 sequence (P05177 1-516): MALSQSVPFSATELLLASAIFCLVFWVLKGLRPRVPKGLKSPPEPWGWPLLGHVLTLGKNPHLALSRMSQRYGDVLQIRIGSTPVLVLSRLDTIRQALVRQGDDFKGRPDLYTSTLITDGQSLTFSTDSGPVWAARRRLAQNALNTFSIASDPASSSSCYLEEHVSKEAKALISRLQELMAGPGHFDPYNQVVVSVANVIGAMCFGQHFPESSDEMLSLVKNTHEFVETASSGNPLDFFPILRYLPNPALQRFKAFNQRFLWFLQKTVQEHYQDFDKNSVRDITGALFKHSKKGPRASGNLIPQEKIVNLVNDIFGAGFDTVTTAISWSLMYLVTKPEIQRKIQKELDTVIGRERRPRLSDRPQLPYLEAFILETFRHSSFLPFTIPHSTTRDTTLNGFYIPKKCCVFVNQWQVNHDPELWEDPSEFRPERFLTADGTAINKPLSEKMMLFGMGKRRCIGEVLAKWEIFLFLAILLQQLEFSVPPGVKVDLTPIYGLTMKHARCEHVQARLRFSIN

[3] = system: advanced ROS1-positive NSCLC and other advanced ROS1-positive solid tumors; assay: Phase 1/2 clinical study: antitumor activity; format: in vivo, human; conditions: for tumor change by RECIST 1.1: patient
[4] = Phase 1/2 clinical study: safety and tolerability; format: in vivo
Description: The Phase 1 portion of the study employ a BOIN design with 3+3 run-in to evaluate dose escalation. […] The safety profile is assessed based on physical examinations; ECOG PS; changes from baseline in laboratory parameters, ECGs, vital signs, and ophthalmic examination (baseline only and as clinically indicated); and the reporting of AEs. The DLT Observation Period is defined from first dose on day 1 of cycle 1 (C1D1) through to the end of the first cycle (28-day cycle period).
Each cycle of treatment is 28 days.

[5] = Prior Lorlatinib and/or Repotrectinib n = 18
[6] = ROS1 G2032R Resistance Mutation n = 9
[7] = ≥2 Prior ROS1 TKI and ≥1 Chemotherapy n = 17
[8] = twenty pts, 25-100 mg once daily

CCn1ncc2c1-c1cnc(N)c(c1)O[C@H](C)c1cc(F)ccc1-c1nn(C)nc1C2 [Compound 1, (19R)-3-ethyl-16-fluoro-10,19-dimethyl-20-oxa-3,4,9,10,11,23-hexaazapentacyclo [19.3.1.0^2,^6.0^8,^12.0^13,^18]pentacosa-1 (24),2 (6),4,8,11,13,15,17,21 (25),22-decaen-22-amine]
body weight [1]: no significant changes | median overall survival (mOS) [1]: > 61 days | survival extension over vehicle treatment [1]: > 4 fold | metabolism contribution from CYP1A2 [2]: potential for contributions | Best Response NE, patients ([3]; All Response-Evaluable n = 21): 19^c | Best Response PD, patients ([3]; All Response-Evaluable n = 21): 2 | Best Response PR, patients ([3]; All Response-Evaluable n = 21): 10^a | Best Response SD, patients ([3]; All Response-Evaluable n = 21): 8 | ORR (RESIST 1.1) ([3]; All Response-Evaluable n = 21): 48% | ORR (RESIST 1.1), number of patients ([3]; All Response-Evaluable n = 21): 10 | Best Response NE, patients ([3]; CNS Disease at Baseline n = 11): 0 | Best Response PD, patients ([3]; CNS Disease at Baseline n = 11): 1 | Best Response PR, patients ([3]; CNS Disease at Baseline n = 11): 8a | Best Response SD, patients ([3]; CNS Disease at Baseline n = 11): 2 | ORR (RESIST 1.1) ([3]; CNS Disease at Baseline n = 11): 73% | ORR (RESIST 1.1), number of patients ([3]; CNS Disease at Baseline n = 11): 8 | tumor change (further disease regression) ([3]; EZR-ROS1 G2032R patient, 50 mg, at 16 weeks): −58% | Best Response NE, patients [3, 5]: 1c | Best Response PD, patients [3, 5]: 1 | Best Response PR, patients [3, 5]: 9a | Best Response SD, patients [3, 5]: 7 | ORR (RESIST 1.1) [3, 5]: 50% | ORR (RESIST 1.1), number of patients [3, 5]: 9 | Best Response NE, patients [3, 6]: 0 | Best Response PD, patients [3, 6]: 0 | Best Response PR, patients [3, 6]: 7^b | Best Response SD, patients [3, 6]: 2 | ORR (RESIST 1.1) [3, 6]: 78% | ORR (RESIST 1.1), number of patients [3, 6]: 7 | confirmed partial responses (PR) ([3]; among 12 efficacy-evaluable patients with ROS1+ NSCLC, 25-75 mg QD): 6 | median time to response ([3]; data as of Sep. 13, 2022): about 3.6 weeks | response-evaluable patients continuing treatment ([3]; data as of Sep. 13, 2022): 76% | tumor change, ongoing PR pending confirmation ([3]; one patient with ROS1 D2033N): −40% | patients with tumor shrinkage ([3]; patient subgroup with known ROS1 G2032R resistance mutation): 100% | ORR ([3]; patient subgroup with known ROS1 G2032R resistance mutation, data as of Sep. 13, 2022): 78% | tumor change by RECIST 1.1 ([3]; CD74-ROS1 G2032R, 25 mg daily, after 4 weeks): −31% | tumor change by RECIST 1.1 ([3]; CD74-ROS1 G2032R, escalated to 75 mg daily, over 5 months, confirmed PR): −60% | tumor change by RECIST 1.1 ([3]; EZR-ROS1, 25 mg daily, over 7 months): −48% | tumor change by RECIST 1.1 ([3]; EZR-ROS1, no ROS1 resistance mutations, 25 mg daily, week 4): −33% | tumor change by RECIST 1.1 ([3]; EZR-ROS1 G2032R, 50 mg daily, approximately 5 months, confirmed PR): −58% | tumor change by RECIST 1.1 ([3]; EZR-ROS1 G2032R, 50 mg daily, week 4): −38% | intracranial PR (patients) ([3]; patients with measurable (>10 mm) CNS metastases): 3/3 | median duration of treatment ([3]; response-evaluable patients with NSCLC, data as of Sep. 13, 2022): about 3.6 months | ORR ([3]; response-evaluable patients with any CNS disease, data as of Sep. 13, 2022): 73% | Best Response NE, patients [3, 7]: 1c | Best Response PD, patients [3, 7]: 1 | Best Response PR, patients [3, 7]: 9a | Best Response SD, patients [3, 7]: 6 | ORR (RESIST 1.1) [3, 7]: 53% | ORR (RESIST 1.1), number of patients [3, 7]: 9 | treatment discontinuation due to toxicity ([4]; data as of Sep. 13, 2022): No treatment was discontinued due to toxicity | AEs leading to dose reduction or discontinuation ([4]; data of Sep. 13, 2022): no AEs leading to dose reduction or discontinuation | DLTs ([4]; data of Sep. 13, 2022): no observed DLTs | treatment-related SAEs ([4]; data of Sep. 13, 2022): no treatment-related SAEs | treatment-related dizziness ([4]; data of Sep. 13, 2022): no treatment-related dizziness | tolerability (dizziness, orthostasis, paresthesia) ([4]; patient, 25 mg daily): well tolerated | neurological toxicities ([4]; patient, 50 mg daily): No neurological toxicities | neurological toxicities ([4]; patient, 25 then 75 mg daily): without neurological toxicities | DLTs, dose reductions, drug-related treatment discontinuations [4, 8]: No DLTs, dose reductions, or drug-related treatment discontinuations | grade of treatment-related adverse events (TRAEs) [4, 8]: grade 1 | tolerability ([4]; up to 125 mg daily): well-tolerated
